Reference: patent US20250197406A1, “INDAZOLES AS HEMATOPOIETIC PROGENITOR KINASE 1 (HPK1) INHIBITORS AND METHODS FOR USING SAME” (1ST Biotherapeutics, Inc., priority 2022, published 2025)

Target: recombinant human HPK1 (Homo sapiens (Human), UniProt Q92918)
Test: HPK1 kinase assay (Promega ADP-Glo kinase assay)
Assay type: biochemical
Details: In vitro activity against HPK1, 5 ng HPK1, MBP substrate, ATP 25 μM, 30° C. 40 minutes
Outline: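 ADP-Glo luminescence assay with 5 ng recombinant human HPK1, MBP substrate and ATP (added as 25 µM solution) in Tris pH 7.5, 20 mM MgCl2, BSA, DTT, 0.5% DMSO. Reaction ran 40 min at 30 °C. IC50 was fitted from percent inhibition over an inhibitor concentration range.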

Sequence of recombinant human HPK1 (Q92918 whole entry): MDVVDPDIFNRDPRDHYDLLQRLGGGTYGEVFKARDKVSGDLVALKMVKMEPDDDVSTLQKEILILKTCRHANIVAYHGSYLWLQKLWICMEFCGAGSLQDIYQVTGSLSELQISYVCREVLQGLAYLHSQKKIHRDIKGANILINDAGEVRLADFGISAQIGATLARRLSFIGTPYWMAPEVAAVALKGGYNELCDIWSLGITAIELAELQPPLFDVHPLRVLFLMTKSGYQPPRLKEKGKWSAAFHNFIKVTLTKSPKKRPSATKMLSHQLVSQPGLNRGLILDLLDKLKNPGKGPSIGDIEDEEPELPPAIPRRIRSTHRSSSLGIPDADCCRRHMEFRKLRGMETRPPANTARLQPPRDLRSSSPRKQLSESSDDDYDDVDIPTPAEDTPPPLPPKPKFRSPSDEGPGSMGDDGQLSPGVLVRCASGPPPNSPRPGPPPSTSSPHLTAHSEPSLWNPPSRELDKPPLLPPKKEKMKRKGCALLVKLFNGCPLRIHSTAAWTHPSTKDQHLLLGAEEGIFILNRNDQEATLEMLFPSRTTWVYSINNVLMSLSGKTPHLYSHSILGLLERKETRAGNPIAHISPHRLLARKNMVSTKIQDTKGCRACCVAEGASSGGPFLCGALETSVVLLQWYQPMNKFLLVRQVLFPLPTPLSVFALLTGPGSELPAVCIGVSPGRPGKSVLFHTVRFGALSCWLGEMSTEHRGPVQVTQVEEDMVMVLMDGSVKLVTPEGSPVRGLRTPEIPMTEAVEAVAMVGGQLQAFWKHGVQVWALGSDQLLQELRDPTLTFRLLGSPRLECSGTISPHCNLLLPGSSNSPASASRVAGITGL

Question: For CC(C)Nc1c(F)c(Cl)c(-c2cn3cc(NC(=O)[C@@H]4C[C@@H]4C#N)nc3cn2)c2cn[nH]c12 [Example 51, (1R,2S)-N-(6-(5-chloro-6-fluoro-7-(isopropylamino)-1H-indazol-4-yl)imidazo[1,2-a]pyrazin-2-yl)-2-cyanocyclopropane-1-carboxamide], which IC50 is on record?
Answer: The IC50 was < 100 nM.

Question: How did the IC50 turn out when CC(=O)Nc1cn2cc(-c3c(Cl)c(F)c(CN4CCC(C)(O)C4)c4[nH]ncc34)ncc2n1 (stereo not shown) [Example 159, N-(6-(5-chloro-6-fluoro-7-((3-hydroxy-3-methylpyrrolidin-1-yl)methyl)-1H-indazol-4-yl)imidazo[1,2-a]pyrazin-2-yl)acetamide] was run?
Answer: The IC50 was 501 to 1000 nM.

Question: Cc1c(F)c(C(C)CN2C(=O)c3ccccc3C2=O)c2[nH]ncc2c1-c1cn2cc(NC(=O)[C@@H]3C[C@@H]3F)nc2cn1 (stereo partly drawn) [Example 22, (1S,2S)-N-(6-(7-(1-(1,3-dioxoisoindolin-2-yl)propan-2-yl)-6-fluoro-5-methyl-1H-indazol-4-yl)imidazo[1,2-a]pyrazin-2-yl)-2-fluorocyclopropane-1-carboxamide] was tested. Which IC50 did it give?
Answer: Its IC50 is < 100 nM.

Question: Which IC50 does the source give for CC(C)Nc1c(F)c(Cl)c(-c2cn3cc(NC(=O)C(F)F)nc3cn2)c2cn[nH]c12 [Example 122, N-(6-(5-chloro-6-fluoro-7-(isopropylamino)-1H-indazol-4-yl)imidazo[1,2-a]pyrazin-2-yl)-2,2-difluoroacetamide] here?
Answer: Its IC50 is < 100 nM.

Question: With CC(=O)Nc1cn2cc(-c3c(Cl)c(F)c([C@H](C)NC=O)c4[nH]ncc34)ncc2n1 [Example 140, (S)-N-(6-(5-chloro-6-fluoro-7-(1-formamidoethyl)-1H-indazol-4-yl)imidazo[1,2-a]pyrazin-2-yl)acetamide] as the compound, how does the IC50 read?
Answer: The IC50 was < 100 nM.

Question: For CC(=O)N(C)c1cn2cc(-c3c(Cl)c(F)c(NC(C)C)c4[nH]ncc34)ncc2n1 [Example 102, N-(6-(5-chloro-6-fluoro-7-(isopropylamino)-1H-indazol-4-yl)imidazo[1,2-a]pyrazin-2-yl)-N-methylacetamide], which IC50 is on record?
Answer: The IC50 was 501 to 1000 nM.

Question: Cc1c(F)c(C(O)C2CC2)c2[nH]ncc2c1-c1cn2cc(NC(=O)[C@@H]3C[C@@H]3F)nc2cn1 (stereo partly drawn) [Example 1, (1S,2S)-N-(6-(7-(cyclopropyl(hydroxy)methyl)-6-fluoro-5-methyl-1H-indazol-4-yl)imidazo[1,2-a]pyrazin-2-yl)-2-fluorocyclopropane-1-carboxamide] was tested. Which IC50 did it give?
Answer: The IC50 was < 100 nM.

Question: How did the IC50 turn out when CC(=O)NCC(C)c1c(F)c(C(F)(F)F)c(-c2cn3cc(NC(=O)[C@@H]4C[C@@H]4F)nc3cn2)c2cn[nH]c12 (stereo partly drawn) [Example 99, (1S,2S)-N-(6-(7-(1-acetamidopropan-2-yl)-6-fluoro-5-(trifluoromethyl)-1H-indazol-4-yl)imidazo[1,2-a]pyrazin-2-yl)-2-fluorocyclopropane-1-carboxamide] was run?
Answer: Its IC50 is < 100 nM.

Question: How did the IC50 turn out when CC(C)Nc1c(F)c(Cl)c(-c2cn3cc(NC(=O)C(F)(F)F)nc3cn2)c2cn[nH]c12 [Example 66, N-(6-(5-chloro-6-fluoro-7-(isopropylamino)-1H-indazol-4-yl)imidazo[1,2-a]pyrazin-2-yl)-2,2,2-trifluoroacetamide] was run?
Answer: Its IC50 is < 100 nM.

Question: For CC(=O)Nc1cn2cc(-c3c(Cl)c(F)c([C@@H](C)N[S@+]([O-])C(C)(C)C)c4[nH]ncc34)ncc2n1 [Example 135, N-(6-(7-((R)-1-(((R)-tert-butylsulfinyl)amino)ethyl)-5-chloro-6-fluoro-1H-indazol-4-yl)imidazo[1,2-a]pyrazin-2-yl)acetamide], which IC50 is on record?
Answer: The IC50 was < 100 nM.

Question: How did the IC50 turn out when CC(C)Nc1c(F)c(Cl)c(-c2cn3cc(NC(=O)[C@H](C)N)nc3cn2)c2cn[nH]c12 [Example 79, (S)-2-amino-N-(6-(5-chloro-6-fluoro-7-(isopropylamino)-1H-indazol-4-yl)imidazo[1,2-a]pyrazin-2-yl)propanamide] was run?
Answer: Its IC50 is < 100 nM.

Question: Which IC50 does the source give for Cc1c(F)c(NC(C)C)c2[nH]ncc2c1-c1cn2cc(NC(=O)[C@@H]3C[C@H]3F)nc2cn1 [Example 34, (1S,2R)-2-fluoro-N-(6-(6-fluoro-7-(isopropylamino)-5-methyl-1H-indazol-4-yl)imidazo[1,2-a]pyrazin-2-yl)cyclopropane-1-carboxamide] here?
Answer: The IC50 was < 100 nM.

Question: For CC(=O)Nc1cn2cc(-c3c(C(F)(F)F)c(F)c(NC(C)C)c4[nH]ncc34)ncc2n1 [Example 83, N-(6-(6-fluoro-7-(isopropylamino)-5-(trifluoromethyl)-1H-indazol-4-yl)imidazo[1,2-a]pyrazin-2-yl)acetamide], which IC50 is on record?
Answer: The IC50 was < 100 nM.

Question: Cc1c(F)c(C(NC(=O)C2CC2)C2CC2)c2[nH]ncc2c1-c1cn2cc(NC(=O)[C@@H]3C[C@@H]3F)nc2cn1 (stereo partly drawn) [Example 67, (1S,2S)-N-(6-(7-(cyclopropanecarboxamido(cyclopropyl)methyl)-6-fluoro-5-methyl-1H-indazol-4-yl)imidazo[1,2-a]pyrazin-2-yl)-2-fluorocyclopropane-1-carboxamide] was tested. Which IC50 did it give?
Answer: The IC50 was < 100 nM.

Question: Which IC50 does the source give for COc1c(F)c(C(C)O)c2[nH]ncc2c1-c1cn2cc(NC(=O)[C@@H]3C[C@@H]3F)nc2cn1 (stereo partly drawn) [Example 128, (1S,2S)-2-fluoro-N-(6-(6-fluoro-7-(1-hydroxyethyl)-5-methoxy-1H-indazol-4-yl)imidazo[1,2-a]pyrazin-2-yl)cyclopropane-1-carboxamide] here?
Answer: The IC50 was < 100 nM.

Question: With CC(C)Nc1c(F)c(Cl)c(-c2cn3cc(NC(=O)c4ccccn4)nc3cn2)c2cn[nH]c12 [Example 58, N-(6-(5-chloro-6-fluoro-7-(isopropylamino)-1H-indazol-4-yl)imidazo[1,2-a]pyrazin-2-yl)picolinamide] as the compound, how does the IC50 read?
Answer: Its IC50 is 101 to 500 nM.

Question: How did the IC50 turn out when CC(C)Nc1c(F)c(Cl)c(-c2cn3cc(NC(=O)[C@@H](C)N(C)C)nc3cn2)c2cn[nH]c12 [Example 106, (R)-N-(6-(5-chloro-6-fluoro-7-(isopropylamino)-1H-indazol-4-yl)imidazo[1,2-a]pyrazin-2-yl)-2-(dimethylamino)propanamide] was run?
Answer: Its IC50 is 501 to 1000 nM.

Question: CC(C)Nc1c(F)c(Cl)c(-c2cn3cc(NC(=O)N4CCCC4)nc3cn2)c2cn[nH]c12 [Example 124, N-(6-(5-chloro-6-fluoro-7-(isopropylamino)-1H-indazol-4-yl)imidazo[1,2-a]pyrazin-2-yl)pyrrolidine-1-carboxamide] was tested. Which IC50 did it give?
Answer: Its IC50 is < 100 nM.

Question: How did the IC50 turn out when CC(=O)Nc1cn2cc(-c3c(Cl)c(F)c(OC4CN(C(C)=O)C4)c4[nH]ncc34)ncc2n1 [Example 145, N-(6-(7-((1-acetylazetidin-3-yl)oxy)-5-chloro-6-fluoro-1H-indazol-4-yl)imidazo[1,2-a]pyrazin-2-yl)acetamide] was run?
Answer: Its IC50 is 501 to 1000 nM.

Question: For CC(C)Nc1c(F)c(Cl)c(-c2cn3cc(NC(=O)OC(C)C)nc3cn2)c2cn[nH]c12 [Example 95, isopropyl (6-(5-chloro-6-fluoro-7-(isopropylamino)-1H-indazol-4-yl)imidazo[1,2-a]pyrazin-2-yl)carbamate], which IC50 is on record?
Answer: Its IC50 is < 100 nM.

Question: For O=C(Nc1cn2cc(-c3c(C(F)F)c(F)c(C(C4CC4)N4C(=O)c5ccccc5C4=O)c4[nH]ncc34)ncc2n1)[C@@H]1C[C@@H]1F (stereo partly drawn) [Example 48, (1S,2S)-N-(6-(7-(cyclopropyl(1,3-dioxoisoindolin-2-yl)methyl)-5-(difluoromethyl)-6-fluoro-1H-indazol-4-yl)imidazo[1,2-a]pyrazin-2-yl)-2-fluorocyclopropane-1-carboxamide], which IC50 is on record?
Answer: Its IC50 is < 100 nM.

Question: Which IC50 does the source give for CC(C)Nc1c(F)c(Cl)c(-c2cn3cc(NC(=O)c4ccccc4)nc3cn2)c2cn[nH]c12 [Example 57, N-(6-(5-chloro-6-fluoro-7-(isopropylamino)-1H-indazol-4-yl)imidazo[1,2-a]pyrazin-2-yl)benzamide] here?
Answer: The IC50 was < 100 nM.
